In paper PMC9424906 (Frontiers in Pharmacology, 2022):
“Also recorded” adds a separate entry of the source.

Legend:
[1] = tested on: SARS-CoV-2 (USA_WA1/2020); experiment: SARS-CoV-2 cytopathic effect (CPE) assay in Vero E6 cells; format: cell-based; conditions: Severe acute respiratory syndrome coronavirus 2, Vero C1008; Vero E6 cells, MOI 0.002, 72 h, n = 2; read-out: EC50, inhibition of SARS-CoV-2 CPE
[2] = tested on: SARS-CoV-2 (2019-nCoV/USA-WAl/2020); format: cell-based; conditions: EpiAirway 3D HAE tissue model
in vitro = in vitro ADME; conditions: PAMPA, pH 7.4
Description: Stirring double-sink PAMPA (patented by Pion Inc.) was employed to determine permeability. Assay was performed as described previously ([Sun et al., 2017]). The PAMPA lipid membrane, which consisted of an artificial membrane of a proprietary lipid mixture and dodecane (Pion Inc.), was optimized to predict cell membrane permeability. This artificial membrane was immobilized on a plastic matrix of a 96-well “donor” filter plate placed below a 96-well “acceptor” plate. Both “donor” and “acceptor” wells were buffered to pH 7.4. […] Permeability calculations were performed using Pion Inc. software and were expressed in the unit of 10^–6 cm/s.

[3] = format: in vitro ADME, human, rat, mouse, dog, monkey
Description: Samples were analyzed using UPLC-MS/MS.

CNT2 = molecular target: T1, CNT2 (Homo sapiens, UniProt O43868); experiment: Nucleoside transporter uptake, CNT2-transfected MDCK cells; format: in vitro ADME; conditions: for Uptake compared to control cells: CNT2-transfected cells
T1 construct: expressed in transfected cells; host or cells: MDCK-II
T1 sequence (O43868 1-658): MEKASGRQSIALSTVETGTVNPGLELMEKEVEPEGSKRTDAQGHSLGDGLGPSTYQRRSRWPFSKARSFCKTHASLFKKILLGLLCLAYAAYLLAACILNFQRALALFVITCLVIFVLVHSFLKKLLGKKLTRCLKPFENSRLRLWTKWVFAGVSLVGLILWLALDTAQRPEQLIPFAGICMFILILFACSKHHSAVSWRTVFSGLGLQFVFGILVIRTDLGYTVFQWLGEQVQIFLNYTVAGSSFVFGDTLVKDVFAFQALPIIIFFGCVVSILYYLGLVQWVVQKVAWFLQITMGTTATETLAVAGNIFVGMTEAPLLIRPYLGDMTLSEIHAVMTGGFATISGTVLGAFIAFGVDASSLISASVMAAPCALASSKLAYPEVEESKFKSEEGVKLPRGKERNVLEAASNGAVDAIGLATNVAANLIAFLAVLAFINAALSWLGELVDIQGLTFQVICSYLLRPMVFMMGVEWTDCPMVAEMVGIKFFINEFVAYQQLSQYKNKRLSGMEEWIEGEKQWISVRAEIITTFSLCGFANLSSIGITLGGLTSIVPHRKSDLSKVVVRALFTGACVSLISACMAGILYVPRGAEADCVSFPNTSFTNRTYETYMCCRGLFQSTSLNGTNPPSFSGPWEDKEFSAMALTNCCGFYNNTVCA
Excerpt: Each condition was run in triplicate.

MDR1 = conditions: MDCK-MDR1
OCT1 = conditions: cited from earlier work
OCT2 = conditions: cited from earlier work
OAT1 = conditions: cited from earlier work
OATP1B1 = conditions: cited from earlier work
ENT1 = ENT1 (Homo sapiens, UniProt Q99808); experiment: Nucleoside transporter uptake, ENT1-transfected MDCK cells
ENT4 = ENT4 (Homo sapiens, UniProt Q7RTT9); experiment: Nucleoside transporter uptake, ENT4-transfected MDCK cells
ENT4, sequence (Q7RTT9 whole entry): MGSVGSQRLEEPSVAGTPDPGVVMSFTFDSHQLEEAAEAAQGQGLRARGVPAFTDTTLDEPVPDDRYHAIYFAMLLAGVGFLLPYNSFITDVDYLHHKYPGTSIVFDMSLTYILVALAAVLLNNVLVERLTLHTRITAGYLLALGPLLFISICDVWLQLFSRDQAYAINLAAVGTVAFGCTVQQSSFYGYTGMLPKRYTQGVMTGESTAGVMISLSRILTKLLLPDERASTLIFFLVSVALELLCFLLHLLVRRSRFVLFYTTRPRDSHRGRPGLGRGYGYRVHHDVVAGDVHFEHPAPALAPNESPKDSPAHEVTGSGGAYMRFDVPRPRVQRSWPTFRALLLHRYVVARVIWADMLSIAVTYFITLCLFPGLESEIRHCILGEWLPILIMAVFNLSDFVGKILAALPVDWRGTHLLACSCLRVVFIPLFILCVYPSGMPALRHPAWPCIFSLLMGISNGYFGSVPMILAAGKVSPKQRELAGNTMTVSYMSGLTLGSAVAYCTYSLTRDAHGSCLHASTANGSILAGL

ENT1, sequence (Q99808 whole entry): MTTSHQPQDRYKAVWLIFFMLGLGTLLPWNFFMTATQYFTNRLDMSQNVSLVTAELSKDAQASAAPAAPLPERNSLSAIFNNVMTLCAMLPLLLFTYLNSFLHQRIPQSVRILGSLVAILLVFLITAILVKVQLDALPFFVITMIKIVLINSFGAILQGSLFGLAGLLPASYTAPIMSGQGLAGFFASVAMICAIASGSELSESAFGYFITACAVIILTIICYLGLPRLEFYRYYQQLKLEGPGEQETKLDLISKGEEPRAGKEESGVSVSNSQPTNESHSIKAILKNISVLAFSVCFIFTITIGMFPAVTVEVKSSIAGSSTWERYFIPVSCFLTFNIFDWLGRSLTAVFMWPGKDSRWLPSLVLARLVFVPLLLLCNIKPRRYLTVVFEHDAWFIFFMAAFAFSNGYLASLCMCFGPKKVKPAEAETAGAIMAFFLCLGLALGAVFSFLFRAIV

N#C[C@@]1(c2ccc3c(N)ncnn23)O[C@H](CO)[C@@H](O)[C@H]1O [GS-441524]
EC50 [1]: 1.86 µM | Potency on viral titer (TCID50) at 24 h ([2]; 24 h): lower potency than EIDD-2801 | Viral titer (TCID50) ([2]; 24 h and 96 h after infection): significantly inhibited the viral infection; also recorded: reduced viral load | Papp at 30 min (in vitro): < 10 nm/s | Stability in cytosolic fractions [3]: stable | Stability in liver microsomes [3]: stable | Substrate of CNT2 (CNT2): not a substrate; also recorded: unlikely to be a substrate | Uptake compared to control cells (CNT2; 10 µM): higher than 2 fold | Uptake compared to control cells (CNT2; 30 and 100 µM): less than 2 fold | Substrate of MDR1 (MDR1): substrate | Substrate of OCT1 (OCT1): not a substrate | Substrate of OCT2 (OCT2): not a substrate | Substrate of OAT1 (OAT1): not a substrate | Substrate of OATP1B1 (OATP1B1): not a substrate | Inhibition of uptake by reference inhibitor (ENT1; ENT1-transfected cells, reference inhibitor NBMPR, 30 µM GS-441524): 92.3% | Substrate of ENT1 (ENT1; MDCK): substrate | Difference in uptake compared to control cells (ENT4): less than 2 fold
